In patent US20250215029A1 (Recludix Pharma, Inc., priority 2022, published 2025):
Read-outs that look alike come from different tables or passages of the source.

Columns and labels:
[1] = biological target: T1, Recombinant STAT3 protein (STAT3 (G127-I722)) (Homo sapiens, UniProt P40763); assay: STAT3 Fluorescence Polarization (FP) Assay; type: binding; details: probe 5-FAM-GpYLPQTV-NH2 2 nM, 45-minute incubation
T1 construct: Recombinant STAT3 protein (STAT3 (G127-I722))
Summary of the method: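 Compounds in serial dilution receive a premix of STAT3 (G127-I722, 25 nM) and fluorescent phosphotyrosine peptide 5-FAM-GpYLPQTV-NH2 (2 nM) at pH 7.4. After 45 min at room temperature, FP is measured and IC50 derived by nonlinear regression.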

[2] = biological target: T2, Recombinant STAT6 protein (STAT6 (W123-T658)) (Homo sapiens, UniProt P42226); assay: STAT6 Fluorescence Polarization (FP) Assay; type: binding; details: probe 5-FAM-Ap[…]-NH2 2 nM, 45-minute incubation
T2 construct: Recombinant STAT6 protein (STAT6 (W123-T658))
T2 sequence (P42226 123-658): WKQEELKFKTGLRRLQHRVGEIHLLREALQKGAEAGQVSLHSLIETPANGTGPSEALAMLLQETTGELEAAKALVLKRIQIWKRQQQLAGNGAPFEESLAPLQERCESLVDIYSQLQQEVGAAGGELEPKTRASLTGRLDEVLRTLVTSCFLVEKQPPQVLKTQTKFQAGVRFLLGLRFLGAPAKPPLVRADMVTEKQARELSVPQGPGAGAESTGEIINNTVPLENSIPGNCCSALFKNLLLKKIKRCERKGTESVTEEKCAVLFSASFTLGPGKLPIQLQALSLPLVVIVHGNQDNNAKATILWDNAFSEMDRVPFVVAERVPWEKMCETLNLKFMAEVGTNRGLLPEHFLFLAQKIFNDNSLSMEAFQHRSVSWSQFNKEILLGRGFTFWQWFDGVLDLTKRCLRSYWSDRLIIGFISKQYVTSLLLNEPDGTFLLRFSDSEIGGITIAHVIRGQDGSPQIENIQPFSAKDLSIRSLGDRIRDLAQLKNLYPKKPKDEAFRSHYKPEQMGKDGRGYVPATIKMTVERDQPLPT
Summary of the method: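 Serially diluted compounds received a premix of STAT6 (W123-T658, 250 nM) and 5-FAM peptide probe (2 nM) in pH 7.4 HEPES buffer containing DTT and Tween 20. Following 45 min at room temperature, FP was recorded. IC50s were fitted by nonlinear regression; values are binned A (≤300 nM), B (>300-3000 nM), C (>3-30 μM), D (>30 μM).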

[3] = STAT3 (G127-I722) 25 nM, read-out: STAT3 (FP assay IC50 class)
[4] = STAT6 (W123-T658) 250 nM, read-out: STAT6 (FP assay IC50 class)
[5] = STAT3 25 nM, read-out: STAT3 (FP assay IC50)
[6] = STAT6 250 nM, read-out: STAT6 (FP assay IC50)

T1 sequence (P40763 127-722): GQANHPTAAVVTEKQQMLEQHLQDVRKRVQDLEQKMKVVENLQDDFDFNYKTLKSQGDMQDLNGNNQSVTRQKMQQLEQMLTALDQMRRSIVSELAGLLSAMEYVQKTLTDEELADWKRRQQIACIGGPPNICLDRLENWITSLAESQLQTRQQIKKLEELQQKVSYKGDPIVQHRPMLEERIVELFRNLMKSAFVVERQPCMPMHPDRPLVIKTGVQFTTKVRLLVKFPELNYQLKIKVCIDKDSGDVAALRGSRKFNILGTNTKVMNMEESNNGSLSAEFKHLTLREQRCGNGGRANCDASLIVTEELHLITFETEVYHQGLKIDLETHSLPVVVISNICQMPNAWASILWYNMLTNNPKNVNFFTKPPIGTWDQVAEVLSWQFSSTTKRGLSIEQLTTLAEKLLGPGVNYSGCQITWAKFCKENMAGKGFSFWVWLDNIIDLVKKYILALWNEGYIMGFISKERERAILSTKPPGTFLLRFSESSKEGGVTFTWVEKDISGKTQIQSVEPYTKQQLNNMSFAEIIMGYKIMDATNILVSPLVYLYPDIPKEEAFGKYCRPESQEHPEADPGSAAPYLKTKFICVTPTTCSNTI

SMILES	IC50 [1, 3]	IC50 [2, 4]	IC50 [1, 5]	IC50 [2, 6]
CN(C)c1ncncc1C1CN(C(=O)[C@@H]2CC[C@@H]3CCC[C@H](NC(=O)c4cc5cc(C(F)P(=O)(O)O)ccc5s4)C(=O)N32)C1 (stereo partly drawn) [Compound 739, ((2-(((3S,6S,9aS)-3-(3-(4-(dimethylamino)pyrimidin-5-yl)azetidine-1-carbonyl)-5-oxooctahydro-1H-pyrrolo[1,2-a]azepin-6-yl)carbamoyl)benzo [b]thiophen-5-yl)fluoromethyl) phosphonic acid]	< 100 nM	3000 to 30000 nM		
Cc1cncnc1C1CN(C(=O)[C@@H]2CC[C@@H]3CCC[C@H](NC(=O)c4cc5cc(C(F)(F)P(=O)(O)O)ccc5s4)C(=O)N32)C1 [Compound 652, (difluoro(2-(((3S,6S,9aS)-3-(3-(5-methylpyrimidin-4-yl)azetidine-1-carbonyl)-5-oxooctahydro-1H-pyrrolo[1,2-a]azepin-6-yl)carbamoyl)benzo [b]thiophen-5-yl)methyl) phosphonic acid]	100 to 1000 nM	300 to 3000 nM		
N#C[C@H]1CN(C(=O)[C@@H]2CC[C@@H]3/C=C\CC[C@H](NC(=O)c4cc5cc(C(F)(F)P(=O)(O)O)ccc5s4)C(=O)N32)C[C@@H]1c1ccccc1 (relative stereo) [Compound 27, ((2-(((3S,6S,10aR,Z)-3-(rel-trans)3-cyano-4-phenylpyrrolidine-1-carbonyl)-5-oxo-1,2,3,5,6,7,8,10a-octahydropyrrolo[1,2-a]azocin-6-yl)carbamoyl)benzo[b]thiophen-5-yl) difluoromethyl) phosphonic acid]			1000 to 10000 nM	≤ 300 nM
N#Cc1cccc(C2CN(C(=O)[C@@H]3CC[C@@H]4CCC[C@H](NC(=O)c5cc6cc(CP(=O)(O)O)ccc6s5)C(=O)N43)C2)n1 [Compound 653, ((2-(((3S,6S,9aS)-3-(3-(6-cyanopyridin-2-yl)azetidine-1-carbonyl)-5-oxooctahydro-1H-pyrrolo[1,2-a]azepin-6-yl)carbamoyl)benzo [b]thiophen-5-yl)methyl) phosphonic acid]	100 to 1000 nM	3000 to 30000 nM		
C[C@H]1C[C@H]2CC[C@@H](C(=O)N3CC(c4cncnc4N4CCC4)C3)N2C(=O)[C@@H](NC(=O)c2cc3cc([C@H](F)P(=O)(O)O)ccc3s2)C1 (single isomer, unassigned) [Compound 676]	< 100 nM	3000 to 30000 nM		
O=C(N[C@H]1CCC[C@H]2CC[C@@H](C(=O)N3CC(c4ccc5ncccc5c4F)C3)N2C1=O)c1cc2cc(C(F)P(=O)(O)O)ccc2s1 (stereo partly drawn) [Compound 544, (fluoro(2-(((3S,6S,9aS)-3-(3-(5-fluoroquinolin-6-yl)azetidine-1-carbonyl)-5-oxooctahydro-1H-pyrrolo[1,2-a]azepin-6-yl)carbamoyl)benzo[b]thiophen-5-yl)methyl)phosphonic acid]	1000 to 10000 nM	3000 to 30000 nM		
O=C(N[C@H]1CCC[C@H]2CC[C@@H](C(=O)N3CC(c4cnccc4N4CCC4)C3)N2C1=O)c1cc2cc([C@H](F)P(=O)(O)O)ccc2s1 (single isomer, unassigned) [Compound 742]	< 100 nM	300 to 3000 nM		
COc1c(C2CN(C(=O)[C@@H]3CC[C@@H]4CCC[C@H](NC(=O)c5cc6cc([C@@H](F)P(=O)(O)O)ccc6s5)C(=O)N43)C2)ccnc1Cl (single isomer, unassigned) [Compound 698]	100 to 1000 nM	3000 to 30000 nM		
N#C[C@@H]1[C@@H](c2ccccc2)CN(C(=O)[C@@H]2CC[C@@H]3C[C@@H](N4CCC4)CC[C@H](NC(=O)c4cc5cc([C@H](F)P(=O)(O)O)ccc5s4)C(=O)N32)C12CC2 (single isomer, unassigned) [Compound 934]	1000 to 10000 nM	≤ 300 nM		
CS(=N)(=O)c1cnc(C2CN(C(=O)[C@@H]3CC[C@@H]4CCCC[C@H](NC(=O)c5cc6cc(C(F)(F)P(=O)(O)O)ccc6s5)C(=O)N43)C2)nc1 (stereo partly drawn) [Compound 719, (difluoro(2-(((3S,6S,10aS)-3-(3-(5-(S-methylsulfonimidoyl)pyrimidin-2-yl)azetidine-1-carbonyl)-5-oxodecahydropyrrolo [1,2-a]azocin-6-yl)carbamoyl)benzo [b]thiophen-5-yl)methyl) phosphonic acid]	100 to 1000 nM	3000 to 30000 nM		
Cn1ccc(C2(O)CCN(C(=O)[C@@H]3CC[C@@H]4CCCC[C@H](NC(=O)c5cc6cc(C(F)P(=O)(O)O)ccc6s5)C(=O)N43)C2)cc1=O (stereo partly drawn) [Compound 914, (fluoro(2-(((3S,6S,10aS)-3-(3-hydroxy-3-(1-methyl-2-oxo-1,2-dihydropyridin-4-yl)pyrrolidine-1-carbonyl)-5-oxodecahydropyrrolo [1,2-a]azocin-6-yl)carbamoyl)benzo [b]thiophen-5-yl)methyl) phosphonic acid]	100 to 1000 nM	300 to 3000 nM		
O=C(N[C@H]1CC[C@H]2CC[C@@H](C(=O)N3CC(n4ccnc4)C3)N2C1=O)c1cc2cc(C(F)(F)P(=O)(O)O)ccc2s1 [Compound 732, ((2-(((3S,6S,8aS)-3-(3-(1H-imidazol-1-yl)azetidine-1-carbonyl)-5-oxooctahydro-indolizin-6-yl)carbamoyl)benzo [b]thiophen-5-yl)difluoromethyl) phosphonic acid]	1000 to 10000 nM	3000 to 30000 nM		
C[C@H]1C[C@H]2CC[C@@H](C(=O)N3C[C@@H](C#N)[C@H](c4ccccc4)C3)N2C(=O)[C@@H](NC(=O)c2cc3cc(C(F)(F)P(=O)(O)O)ccc3s2)C1 (single isomer, unassigned) [Compound 782]	100 to 1000 nM	300 to 3000 nM		
O=C(N[C@H]1CCCC[C@H]2CC[C@@H](C(=O)N3CC(c4cccnc4)CC34CC4)N2C1=O)c1ccc2ccc(C(F)P(=O)(O)O)cc2c1 (stereo partly drawn) [Compound 891, (fluoro(7-(((3S,6S,10aS)-5-oxo-3-(6-(pyridin-3-yl)-4-azaspiro[2.4]heptane-4-carbonyl)decahydropyrrolo[1,2-a]azocin-6-yl)carbamoyl)naphthalen-2-yl)methyl) phosphonic acid]	1000 to 10000 nM	≤ 300 nM		
C[C@@H]1COCCN1c1ccncc1C1CN(C(=O)[C@@H]2CC[C@@H]3CCC[C@H](NC(=O)c4cc5cc(CP(=O)(O)O)ccc5s4)C(=O)N32)C1 [Compound 860, ((2-(((3S,6S,9aS)-3-(3-(4-((R)-3-methylmorpholino)pyridin-3-yl)azetidine-1-carbonyl)-5-oxooctahydro-1H-pyrrolo[1,2-a]azepin-6-yl)carbamoyl)benzo [b]thiophen-5-yl)methyl) phosphonic acid]	100 to 1000 nM	3000 to 30000 nM		
COc1cc(CCN(C)C(=O)[C@@H]2CC[C@@H]3CCCC[C@H](NC(=O)c4cc5cc(C(F)(F)P(=O)(O)O)ccc5s4)C(=O)N32)ccn1 [Compound 47, (difluoro(2-(((3S,6S,10aS)-3-((2-(2-methoxypyridin-4-yl)ethyl)(methyl)carbamoyl)-5-oxodecahydropyrrolo [1,2-a]azocin-6-yl)carbamoyl)benzo[b]thiophen-5-yl)methyl) phosphonic acid]			1000 to 10000 nM	300 to 3000 nM
CCC[C@@H]1CC[C@H](NC(=O)c2cc3cc(C(F)P(=O)(O)O)ccc3s2)C(=O)N2[C@H](CC[C@H]2C(=O)N2C[C@@H](C#N)[C@H](c3ccccc3)C2)C1 (single isomer, unassigned) [Compound 239]	1000 to 10000 nM	≤ 300 nM		
N#C[C@@H]1[C@@H](c2cccnc2)CN(C(=O)[C@@H]2CC[C@@H]3CCC[C@H](NC(=O)c4cc5cc([C@H](F)P(=O)(O)O)ccc5s4)C(=O)N32)C12CC2 (single isomer, unassigned) [Compound 833]	1000 to 10000 nM	≤ 300 nM		
O=C(N[C@H]1CCCC[C@H]2CC[C@@H](C(=O)N3CC(c4ccccc4)CC34CC4)N2C1=O)c1ccc2ccc(C(F)(F)P(=O)(O)O)cc2c1 (stereo partly drawn) [Compound 880, (difluoro(7-(((3S,6S,10aS)-5-oxo-3-(6-phenyl-4-azaspiro[2.4]heptane-4-carbonyl)decahydropyrrolo[1,2-a]azocin-6-yl)carbamoyl)naphthalen-2-yl)methyl) phosphonic acid]	1000 to 10000 nM	≤ 300 nM		
COCC(=O)NC1(c2ccccn2)CN(C(=O)[C@@H]2CC[C@@H]3CCCC[C@H](NC(=O)c4cc5cc(C(F)P(=O)(O)O)ccc5s4)C(=O)N32)C1 (stereo partly drawn) [Compound 567, (fluoro(2-(((3S,6S,10aS)-3-(3-(2-methoxyacetamido)-3-(pyridin-2-yl)azetidine-1-carbonyl)-5-oxodecahydropyrrolo[1,2-a]azocin-6-yl)carbamoyl)benzo[b]thiophen-5-yl)methyl)phosphonic acid]	100 to 1000 nM	3000 to 30000 nM		
